# Read-outs that look alike come from different tables or passages of the source. Positions of bridges follow the written chain, without caps; N, C: chain ends. Non-standard residues stand in square brackets, D forms with d. Residues, ends and D or L forms follow the SMILES beside them. *: point of attachment. FITC = O=C1OC2(c3ccc(O)cc3Oc3cc(O)ccc32)c2ccc(NC(=S)*)cc21; Tyr(3-I) = N[C@@H](Cc1ccc(O)c(I)c1)C(=O)O; Hyp = O=C(O)[C@@H]1C[C@@H](O)CN1; Ahx = NCCCCCC(=O)O
# What was measured:
# [1] = biological target: fibrin DD(E) fragment (Homo sapiens, UniProt P02671+P02675+P02679); experiment: Fibrin DD(E) fragment affinity of optical contrast agents; format: binding
# Procedure: NovaSyn TGR resin (0.20 mmol/g, 100 mg, 20 μmol) was washed with NMP/ether/NMP. The peptide was assembled by the standard solid phase method using the PyBOP/HOBt/DIEA activation. After the coupling of the final amino acid residue, the resin bound peptide was treated with a solution of piperidine in DMF (20% by volume, 2.0 mL) for 10 minutes to remove the Fmoc protecting group. The resin was washed thoroughly with NMP/ether/NMP, and was treated with a solution of fluorascein-5-isothiocyanate (23.4 mg, 60 μmol) and duisopropylethylamine (11.6 mg, 15.7 μL, 90 μmol) in DMF (1.5 mL) for 12 hours. The resin was washed thoroughly (NMP/ether/NMP), and treated with a solution of Tl (TFA)3 (18.7 mg, 34.5 μmol) in DMF (1.5 mL) at 4° C. for three hours. The resin was washed after this treatment, and treated with a cocktail of TFA/TIS/water (95/2.5/2.5, 2.0 mL) for two hours. The crude peptide was precipitated by adding ether to the cleavage cocktail, and purified by preparative HPLC using a Vydac C-18 column. Structures A-N were formed in this manner and their fibrin DD(E) fragment affinities were determined (Table 5).
# N-terminal labeling of the peptides with optical probes can modulate the binding affinity of the optical contrast agents. For example, when comparing fluorescein, 4-methoxycoumarin and tetramethylrhodamine derivatives of the peptide (QWECPYGLCWIQ (SEQ ID NO:27); Kd=3 μM) the following Kd's were observed (Table 6): […]
# [2] = Stability in rat liver homogenate; format: in vitro ADME; conditions: 37° C., LC-MS; for half-life: tissue homogenate
# Procedure: Stability was assayed using rat liver homogenate, which contains both intra- and extracellular enzymes and represents a particularly harsh chemical environment for peptide bonds. Freshly prepared rat liver homogenate (630 μL) was placed in a glass test tube and incubated at 37° C. in a water bath for 4 minutes. To the rat liver homogenate at 37° C. was added 70 μL of a 1 mM solution of test compound. At time points 0, 5, 15, 30, and 60 minutes, a 100 μL aliquot of the reaction mixture was removed and mixed with 100 μL of methanol in a microfuge tube to quench the reaction. The quenched reaction mixture was centrifuged for 3 minutes at 10,000 rpm to pellet the precipitated protein. The supernatant was analyzed by LC-MS to quantitate the amount of test compound remaining by comparing the area of the single ion MS peak to that of a series of standards. Half life (T1/2) was determined by plotting log percent signal remaining vs. time. The data were fit using an exponential curve fit, wherein T1/2=In2/slope.
# [3] = fluorescein-labeled peptides, read-out: Kd (μM) Vs. DD(E)
# Sequence of fibrin DD(E) fragment (P02671 124-216): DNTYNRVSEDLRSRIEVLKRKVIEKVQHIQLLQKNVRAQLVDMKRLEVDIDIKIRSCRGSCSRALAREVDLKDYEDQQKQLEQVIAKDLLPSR
# Sequence of fibrin DD(E) fragment (P02675 164-491): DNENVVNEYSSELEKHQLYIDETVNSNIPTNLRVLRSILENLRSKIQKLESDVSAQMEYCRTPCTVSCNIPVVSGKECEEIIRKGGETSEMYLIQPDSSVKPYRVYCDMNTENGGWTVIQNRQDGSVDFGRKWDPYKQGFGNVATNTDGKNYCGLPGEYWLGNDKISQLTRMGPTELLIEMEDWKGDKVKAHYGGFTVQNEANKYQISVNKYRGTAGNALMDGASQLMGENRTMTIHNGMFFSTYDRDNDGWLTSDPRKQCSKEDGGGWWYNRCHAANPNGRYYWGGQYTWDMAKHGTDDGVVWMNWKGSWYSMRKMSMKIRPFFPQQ
# Sequence of fibrin DD(E) fragment (P02679 114-432): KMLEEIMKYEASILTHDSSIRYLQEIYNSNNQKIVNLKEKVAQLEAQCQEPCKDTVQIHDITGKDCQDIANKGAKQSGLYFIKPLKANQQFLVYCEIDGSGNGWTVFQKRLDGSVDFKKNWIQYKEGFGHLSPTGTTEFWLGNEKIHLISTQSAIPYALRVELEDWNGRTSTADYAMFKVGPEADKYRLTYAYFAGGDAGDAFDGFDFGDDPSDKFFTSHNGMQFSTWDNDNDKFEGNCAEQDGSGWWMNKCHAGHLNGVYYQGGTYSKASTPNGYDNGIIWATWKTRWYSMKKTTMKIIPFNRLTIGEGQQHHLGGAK
# Sequence of fibrin DD(E) fragment (P02671 36-97): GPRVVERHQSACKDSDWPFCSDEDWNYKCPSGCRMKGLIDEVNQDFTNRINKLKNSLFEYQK
# Sequence of fibrin DD(E) fragment (P02675 45-152): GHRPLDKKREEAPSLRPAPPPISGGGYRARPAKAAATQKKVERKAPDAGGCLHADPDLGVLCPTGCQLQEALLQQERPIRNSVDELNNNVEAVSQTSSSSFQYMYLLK
# Sequence of fibrin DD(E) fragment (P02679 27-88): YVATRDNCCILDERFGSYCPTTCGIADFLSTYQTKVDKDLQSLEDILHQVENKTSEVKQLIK
"Kd [1, 3]",SMILES,half-life [2],other results
0.097 µM,CC[C@H](C)[C@H](NC(=O)[C@H](Cc1c[nH]cn1)NC(=O)[C@@H]1CSSC[C@H](NC(=O)[C@H](Cc2c[nH]cn2)NC(=O)[C@H](Cc2ccccc2)NC(=O)CNC(=O)CCCCCNC(=S)Nc2ccc3c(c2)C(=O)OC32c3ccc(O)cc3Oc3cc(O)ccc32)C(=O)N2C[C@H](O)C[C@H]2C(=O)N[C@@H](Cc2ccc(O)c(I)c2)C(=O)N[C@@H](CC(=O)O)C(=O)N[C@@H](CC(C)C)C(=O)N1)C(N)=O [C] ({FITC-Ahx}-GFHC[Hyp][Tyr(3-I)]DLCHI-NH2; disulfide 4-9),–,–
–,CC(C)C[C@H](NC(=O)[C@@H]1CSSC[C@H](NC(=O)[C@@H]2CCCN2C(=O)[C@H](CC(C)C)NC(=O)C(CNC(=O)C(CN(CCN(CC(=O)O)CC(=O)O)CC(=O)O)N(CC(=O)O)CC(=O)O)NC(=O)C(CN(CCN(CC(=O)O)CC(=O)O)CC(=O)O)N(CC(=O)O)CC(=O)O)C(=O)N[C@@H](CC(=O)O)C(=O)N[C@@H](Cc2ccc(O)cc2)C(=O)N[C@@H](Cc2ccc(O)cc2)C(=O)NCC(=O)N[C@@H]([C@@H](C)O)C(=O)N1)C(=O)N[C@@H](CC(=O)O)C(=O)NCc1ccc(CNC(=O)C(CNC(=O)C(CN(CCN(CC(=O)O)CC(=O)O)CC(=O)O)N(CC(=O)O)CC(=O)O)NC(=O)C(CN(CCN(CC(=O)O)CC(=O)O)CC(=O)O)N(CC(=O)O)CC(=O)O)cc1 (stereo partly shown) [Compound 5],65 min,–
0.06 µM,"CC[C@H](C)[C@H](NC(=O)[C@H](Cc1c[nH]cn1)NC(=O)[C@@H]1CSSC[C@H](NC(=O)[C@H](Cc2c[nH]cn2)NC(=O)[C@H](Cc2ccccc2)NC(=O)[C@H](Cc2c[nH]c3ccccc23)NC(=S)Nc2ccc3c(c2)C(=O)OC32c3ccc(O)cc3Oc3cc(O)ccc32)C(=O)N2CCC[C@H]2C(=O)N[C@@H](Cc2ccc(O)cc2)C(=O)N[C@@H](CC(=O)O)C(=O)N[C@@H](CC(C)C)C(=O)N1)C(=O)N[C@@H](CC(C)C)C(N)=O [Compound K] (HELM PEPTIDE1{[O=C1OC2(c3ccc(O)cc3Oc3cc(O)ccc32)c2ccc(NC(=S)[*:2])cc21].W.F.H.C.P.Y.D.L.C.H.I.L.[am]}$PEPTIDE1,PEPTIDE1,5:R3-10:R3$$$V2.0)",–,–
0.061 µM,CC[C@H](C)[C@H](NC(=O)[C@H](Cc1c[nH]cn1)NC(=O)[C@@H]1CSSC[C@H](NC(=O)[C@H](Cc2c[nH]cn2)NC(=O)[C@H](Cc2ccccc2)NC(=O)[C@H](Cc2c[nH]c3ccccc23)NC(=O)CCCCCNC(=S)Nc2ccc3c(c2)C(=O)OC32c3ccc(O)cc3Oc3cc(O)ccc32)C(=O)N2C[C@H](O)C[C@H]2C(=O)N[C@@H](Cc2ccc(O)c(I)c2)C(=O)N[C@@H](CC(=O)O)C(=O)N[C@@H](CC(C)C)C(=O)N1)C(N)=O [D] ({FITC-Ahx}-WFHC[Hyp][Tyr(3-I)]DLCHI-NH2; disulfide 4-9),–,–
0.09 µM,CC[C@H](C)[C@H](NC(=O)[C@H](Cc1c[nH]cn1)NC(=O)[C@@H]1CSSC[C@H](NC(=O)[C@H](Cc2c[nH]cn2)NC(=O)[C@H](Cc2ccccc2)NC(=O)CNC(=O)CNC(=O)CCCCCNC(=S)Nc2ccc3c(c2)C(=O)OC32c3ccc(O)cc3Oc3cc(O)ccc32)C(=O)N2C[C@H](O)C[C@H]2C(=O)N[C@@H](Cc2ccc(O)c(I)c2)C(=O)N[C@@H](CC(=O)O)C(=O)N[C@@H](CC(C)C)C(=O)N1)C(N)=O [E] ({FITC-Ahx}-GGFHC[Hyp][Tyr(3-I)]DLCHI-NH2; disulfide 5-10),–,–
0.055 µM,"CC[C@H](C)[C@H](NC(=O)[C@H](Cc1c[nH]c2ccccc12)NC(=O)[C@@H]1CSSC[C@H](NC(=O)[C@H](CCC(=O)O)NC(=O)[C@H](Cc2c[nH]c3ccccc23)NC(=O)[C@H](CCC(N)=O)NC(=S)Nc2ccc3c(c2)C(=O)OC32c3ccc(O)cc3Oc3cc(O)ccc32)C(=O)N2CCC[C@H]2C(=O)N[C@@H](Cc2ccc(O)cc2)C(=O)NCC(=O)N[C@@H](CC(C)C)C(=O)N1)C(=O)N[C@@H](CCC(N)=O)C(N)=O [J] (HELM PEPTIDE1{[O=C1OC2(c3ccc(O)cc3Oc3cc(O)ccc32)c2ccc(NC(=S)[*:2])cc21].Q.W.E.C.P.Y.G.L.C.W.I.Q.[am]}$PEPTIDE1,PEPTIDE1,5:R3-10:R3$$$V2.0)",–,"Kd ([1]; fluorophore derivatives of QWECPYGLCWIQ, no unit in Table 6, read-out: Kd): 0.06 µM"
–,CC(C)C[C@H](NC(=O)[C@@H]1CSSC[C@H](NC(=O)[C@@H]2CCCN2C(=O)[C@@H](N)CC(C)C)C(=O)N[C@@H](CC(=O)O)C(=O)N[C@@H](Cc2ccc(O)cc2)C(=O)N[C@@H](Cc2ccc(O)cc2)C(=O)NCC(=O)N[C@@H](C(C)O)C(=O)N1)C(=O)N[C@@H](CC(=O)O)C(N)=O (stereo partly shown) [Structure 1],–,half-life at 100 µM [2]: < 2 min
–,C=NOCC(=O)NCCN(CCN(CCNC(=O)CO/N=C/C(=O)N[C@@H](CC(C)C)C(=O)N1CCC[C@H]1C(=O)N[C@H]1CSSC[C@@H](C(=O)N[C@@H](Cc2ccc(-c3ccccc3)cc2)C(=O)N[C@@H](CC(=O)O)C(N)=O)NC(=O)[C@H]([C@@H](C)O)NC(=O)CNC(=O)[C@H](Cc2ccc(O)cc2)NC(=O)[C@H](Cc2ccc(O)cc2)NC(=O)[C@H](CC(=O)O)NC1=O)C(=O)C(CNC(=O)CN(CCN(CCN(CC(=O)O)CC(=O)O)CC(=O)O)CC(=O)O)NC(=O)CN(CCN(CCN(CC(=O)O)CC(=O)O)CC(=O)O)CC(=O)O)C(=O)C(CNC(=O)CN(CCN(CCN(CC(=O)O)CC(=O)O)CC(=O)O)CC(=O)O)NC(=O)CN(CCN(CCN(CC(=O)O)CC(=O)O)CC(=O)O)CC(=O)O (stereo partly shown) [Structure 2],10 min,–
–,CC(C)C[C@H](NC(=O)[C@@H]1CSSC[C@H](NC(=O)[C@@H]2CCCN2C(=O)[C@H](CC(C)C)NC(=O)c2ccc(-c3ccccc3)cc2)C(=O)N[C@@H](CC(=O)O)C(=O)N[C@@H](Cc2ccc(O)cc2)C(=O)N[C@@H](Cc2ccc(O)cc2)C(=O)NCC(=O)N[C@@H]([C@@H](C)O)C(=O)N1)C(=O)N[C@@H](CC(=O)O)C(=O)NCCN(CCN(CCN)C(=O)C(CNC(=O)CN(CCN(CCN(CC(=O)O)CC(=O)O)CC(=O)O)CC(=O)O)NC(=O)CN(CCN(CCN(CC(=O)O)CC(=O)O)CC(=O)O)CC(=O)O)C(=O)C(CNC(=O)CN(CCN(CCN(CC(=O)O)CC(=O)O)CC(=O)O)CC(=O)O)NC(=O)CN(CCN(CCN(CC(=O)O)CC(=O)O)CC(=O)O)CC(=O)O (stereo partly shown) [Structure 3],9 min,–

# Reference: US7927581B2, “Peptide-based multimeric targeted contrast agents” (Factor 1A, LLC, priority 2001, dated 2011)
